# Reference: patent US7662977B2, “PI-3 kinase inhibitor prodrugs” (Semafore Pharmaceuticals, Inc., priority 2003, dated 2010)
# Peptide text beside a SMILES is read from it. * marks the point of attachment. X1 = O=C(CCC(=O)*)OC[N+]1(c2cc(=O)c3cccc(-c4ccccc4)c3o2)CCOCC1
# Columns and labels:
# nude mice = assay: Acute toxicity after intravenous injection in nude mice; type: in vivo
# Experimental: (§1) In order to prepare the acetoxymethyl quarternary salt of Compound 1101, 1.0 g Compound 1101 was dissolved in 10 ml dry acetonitrile in a glass vial, and 1.0 g bromomethyl acetate (2.0 equivalents) was added and allowed to stir at room temperature overnight. LCMS indicated presence of starting material, so the reaction was heated at 65° C. in an oil bath for 8 hours. The mother liquors were decanted from the solid and the solids washed with a small amount of cold acetonitrile. The solid was dried in a vacuum dessicator overnight. The product was identified as 264 mg of a white solid with a retention time of 2.204 minutes, M+=380 which was 97% pure. […] Additionally, 250 uL of this 32.5 mM solution of compound A040-70 was administered to a nude mouse by oral gavage.
# Intravenously administered Compound 1 was determined to have a 100% mortality within 5 minutes of administration in three nude mice at a dose level of 16 mg/kg.
# [1] = system: p53 transcriptional activity; assay: p53 luciferase (transcriptional activity) in HBECs; type: cell-based; conditions: for induction of p53 luciferase activity versus control: HBECs, Compound 1: 6 hour exposure
# From the text: This experiment tested the effect of PI 3 kinase inhibitors (Compound 1 and the targeted prodrug version of Compound 1; Compound 1126) on the induction of p53 luciferase activity. The transfection procedure was similar to that described in the literature to monitor p53 transcription.
# J774 macrophages [2] = assay: Phagocytosis of sensitized sRBCs in J774 macrophages (class I PI-3 kinase-dependent pathway); type: cell-based
# [3] = system: EDC-CBF1 endothelial cells; assay: Tube formation of EDC-CBF1 endothelial cells on Matrigel; type: cell-based; conditions: overnight
# Experimental: In this example it was determined to what degree PI 3 kinase inhibitors (including targeted PI3 kinase inhibitor prodrugs) could inhibit tube formation. Matrigel was plated into 12-well plate wells and solidified in 37° C. for 2 hours. 1×10^5 EDC-CBF1 endothelial cells were then put on the top of the Matrigel layer in the presence of PBS, RADfV (cyclic negative control peptide), RGDfV (cyclic positive control peptide), RADS (linear negative control peptide), compound 1, or Compound 1126 at 20° M concentration overnight. Pictures were then taken using a microscope.
# J774 macrophages [4] = assay: Phagocytosis of sensitized sRBCs in J774 macrophages (class I PI-3 kinase-dependent pathway); type: cell-based; conditions: for phagocytic index (PGI): 5 μM
# Experimental: The columns indicate phagocytic index or percentage of cells positive for phagocytic response. The phagocytic index is the number of sRBC's (sheep red blood cells) found per 100 J774 cells and the % of phagocytic cells is the % of J774 cells that have phagocytized at least 1 sRBC. The error bars represent standard deviation of mean.
# The bioactivity of LY294002 (Compound 1) was determined by assaying phagocytosis in J774 macrophages, which is a class I PI-3 kinase-dependent pathway. Briefly, […] DMSO control for 1 h in DMEM with 10% FCS and then sensitized sRBCs (sheep red blood cells) was added at a target to effector ratio equal to 100:[…] Cells were exposed to hypotonic shock to remove red blood cells and phagocytosis was determined by measurement of hemoglobin concentration in the cell lysates. […]
# [5] = Reversibility of prodrugs to compound 1 in aqueous phosphate buffer (LC-MS over time); conditions: for half-life: phosphate buffer
# Experimental: Prodrug Compounds were dissolved in water or in DMSO (if not freely soluble in water) and then diluted at least 10-fold into 50 mM phosphate buffer at pH=7.4 or pH=4.8 and allowed to stand at room temperature. The final concentration of the compounds in aqueous environment ranged from 50 to 500 uMolar.
# [6] = system: human non-small cell lung cancer cells: H1299; assay: H1299 non-small cell lung cancer xenograft in nude mice; type: in vivo
# Experimental: Male nude mice of 4-6 weeks in age weighing around 30 grams were inoculated subcutaneously in the right flank with 5 million tumor cells (human non-small cell lung cancer cells: H1299) on day 0. After 14 days of allowing the tumors to grow the animals were divided into 3 groups of 5 animals each. One group received vehicle control alone. One group received twice-per-day tail vein injections (i.v) of 50 uL volume of 24.4 millimolar solution of Compound 1126 in phosphate buffered saline corresponding to 25 mg/kg/day dosing level of the active component of the prodrug (i.e. compound 1). The last group received twice-per-day tail vein injections (i.v) of 50 uL volume of 4.9 millimolar solution of Compound 1126 in phosphate buffered saline corresponding to 5 mg/kg/day dosing level of the active component of the prodrug (compound 1). The tumors were measured every three days using calipers to determine the tumor volume and the animals weights were recorded when the animals were sacrificed on day 27. The results are shown in Table 7 and indicate strong tumor volume reduction versus control for both dose levels at the first datapoint only 3 days after treatment (Day 17) and continuing through to the end of the study: […]
# [7] = system: human brain cancer cell line (U87MG); assay: U87MG brain cancer xenograft model; type: in vivo; conditions: 25 mg/kg/day; for % Tumor Volume Reduction compared to vehicle only control: treatment from day 7, U87MG xenograft
# Experimental: Male nude mice of 4-6 weeks in age weighing around 30 grams were inoculated subcutaneously in the right flank with 5 million tumor cells (human non-small cell lung cancer cells: H1299) on day 0. After 14 days of allowing the tumors to grow the animals were divided into 3 groups of 5 animals each. One group received vehicle control alone. One group received twice-per-day tail vein injections (i.v) of 50 uL volume of 24.4 millimolar solution of Compound 1126 in phosphate buffered saline corresponding to 25 mg/kg/day dosing level of the active component of the prodrug (i.e. compound 1). The last group received twice-per-day tail vein injections (i.v) of 50 uL volume of 4.9 millimolar solution of Compound 1126 in phosphate buffered saline corresponding to 5 mg/kg/day dosing level of the active component of the prodrug (compound 1). The tumors were measured every three days using calipers to determine the tumor volume and the animals weights were recorded when the animals were sacrificed on day 27. The results are shown in Table 7 and indicate strong tumor volume reduction versus control for both dose levels at the first datapoint only 3 days after treatment (Day 17) and continuing through to the end of the study:
# An animal study was run as described in Example above except using a human brain cancer cell line (U87MG) and with treatment starting on day 7 such that the first tumor volume measurement occurred on day 10.
# [8] = Water solubility / solution in phosphate buffered saline; type: physicochemical
# Experimental: as §1
# [9] = portion not accumulated in the skeleton; cited from earlier work
# [10] = 20 uM, exposure-limited: 20 minute exposure then removal of test solution, solvent blank 163
compound,measurement,setting,value
2-(4-morpholinyl)-8-phenyl-4H-1-benzopyran-4-one [Compound 1],observed effects after injection,"nude mice; mice, injection of 1.04 uMoles",immediate death in three out of three mice
"O=c1cc(N2CCOCC2)oc2c(-c3ccccc3)cccc12 [Compound 1, 2-(4-morpholinyl)-8-phenyl-4H-1-benzopyran-4-one]",induction of p53 luciferase activity versus control,[1],more than two fold higher
same,phagocytic index (PGI),J774 macrophages [2]; [10],190
same,tube formation compared with PBS control,[3],significantly less
same,blocking of phagocytosis,"J774 macrophages [4]; LY294002 at 10, 1 and 0.1 μM for 1 h, J774 cells",significantly blocked phagocytosis at all concentrations in a dose dependent manner
same,mortality,"nude mice; nude, mouse, in vivo, iv, 16 mg/kg, 5 min",100%
CC(C)(C)OC(=O)CCC(=O)OC[N+]1(c2cc(=O)c3cccc(-c4ccccc4)c3o2)CCOCC1 [Compound 1110],half-life,[5]; pH 4.8,> 120 h
same,half-life,[5]; pH 7.4,~10 h
N=C(N)NCCCC(NC(=O)CCC(=O)OC[N+]1(c2cc(=O)c3cccc(-c4ccccc4)c3o2)CCOCC1)C(=O)NCC(=O)NC(CC(=O)O)C(=O)NC(CO)C(=O)O (centres unmarked) [Compound 1126] (X1-RGDS-OH; configuration not given here),induction of p53 luciferase activity versus control,[1],~3 fold
same,phagocytic index (PGI),"J774 macrophages [2]; 1 uM, 20 minute incubation, removal, then 2 hours for phagocytosis, 0 uM gave 213",206
same,phagocytic index (PGI),"J774 macrophages [2]; 3 uM, 20 minute incubation, removal, then 2 hours for phagocytosis, 0 uM gave 213",143
same,phagocytic index (PGI),"J774 macrophages [2]; 10 uM, 20 minute incubation, removal, then 2 hours for phagocytosis, 0 uM gave 213",33
same,phagocytic index (PGI),J774 macrophages [2]; [10],50
same,tube formation compared with PBS control,[3],significantly less
same,phagocytic index (PGI),J774 macrophages [4]; aqueous pH=7 incubation time 2 hours,88
same,phagocytic index (PGI),J774 macrophages [4]; aqueous pH=7 incubation time 5 hours,78
same,phagocytic index (PGI),J774 macrophages [4]; aqueous pH=7 incubation time 10 hours,37
same,phagocytic index (PGI),J774 macrophages [4]; time zero with no preincubation,140
same,% Tumor Volume Reduction compared to vehicle only control,"[6]; 5 mg/kg/day i.v. twice per day from day 14, H1299, Day 17",29%
same,% Tumor Volume Reduction compared to vehicle only control,"[6]; 5 mg/kg/day i.v. twice per day from day 14, H1299, Day 20",50%
same,% Tumor Volume Reduction compared to vehicle only control,"[6]; 5 mg/kg/day i.v. twice per day from day 14, H1299, Day 24",44%
same,% Tumor Volume Reduction compared to vehicle only control,"[6]; 5 mg/kg/day i.v. twice per day from day 14, H1299, Day 27",35%
same,% Tumor Volume Reduction compared to vehicle only control,"[6]; 25 mg/kg/day i.v. twice per day from day 14, H1299, Day 17",35%
same,% Tumor Volume Reduction compared to vehicle only control,"[6]; 25 mg/kg/day i.v. twice per day from day 14, H1299, Day 20",66%
same,% Tumor Volume Reduction compared to vehicle only control,"[6]; 25 mg/kg/day i.v. twice per day from day 14, H1299, Day 24",68%
same,% Tumor Volume Reduction compared to vehicle only control,"[6]; 25 mg/kg/day i.v. twice per day from day 14, H1299, Day 27",68%
same,"animal body weights, control group versus the two treatment groups","[6]; day 27, 25 and 5 mg/kg/day i.v., nude mice",lack of statistically significant difference
same,tolerability of twice per day doses,"[6]; two week administration period, 25 and 5 mg/kg/day i.v., nude mice",well tolerated
same,toxicity in U87MG xenograft study,[7],desirable lack of toxicity
same,% Tumor Volume Reduction compared to vehicle only control,[7]; Day 10,20.2%
same,% Tumor Volume Reduction compared to vehicle only control,[7]; Day 14,52.6%
same,% Tumor Volume Reduction compared to vehicle only control,[7]; Day 17,38.5%
same,% Tumor Volume Reduction compared to vehicle only control,[7]; Day 21,35.2%
same,mortality,"nude mice; intravenous, 22 mg/kg, three nude mice, after 1 hour of observation",0%
CN1CC(=O)N(c2ccc(C(=O)OC[N+]3(c4cc(=O)c5cccc(-c6ccccc6)c5o4)CCOCC3)cc2)C1=S [Compound A017-59],conversion back to compound 1,"[5]; phosphate buffer at pH=7.4, over a 17 hour period",significant amounts of this compound converted back to compound 1
COCCOCCOCCOCCC(=O)OC[N+]1(c2cc(=O)c3cccc(-c4ccccc4)c3o2)CCOCC1 [Compound A027-85],half-life,[5]; pH 7.4,~3 h
CC(=O)OC[N+]1(c2cc(=O)c3cccc(-c4ccccc4)c3o2)CCOCC1 [Compound A040-70],water solubility,[8],very high water solubility
same,concentration of solution prepared in phosphate buffered saline,"[8]; 27 mg in 1.865 mL PBS, resulting pH around 4",32.5 millimolar
same,half-life,[5]; pH 7.4,~10 h
O=C(CCC(=O)OC[N+]1(c2cc(=O)c3cccc(-c4ccccc4)c3o2)CCOCC1)NCc1ccc(C(=O)NCCN(CCN(CP(=O)(O)O)CP(=O)(O)O)CCN(CP(=O)(O)O)CP(=O)(O)O)cc1 [Compound A046-89P],conversion back to compound 1,"[5]; after 24 hours standing at pH=7.0, phosphate buffer",converted completely back to compound 1
O=P([O-])(O)CN(CCN(CP(=O)([O-])O)CP(=O)(O)O)CP(=O)([O-])O.[153Sm+3] [^153Sm-EDTMP],time after administration at which excretion is almost complete,[9],≤ 6 h
Cc1ccc(C(=O)Cn2c3c(sc2=N)CCCC3)cc1 [pifithrin alpha],effect on induction of p53 function by Compound 1 and Compound 1126,[1]; 20 uM concentration,abrogated
"arg-gly-asp-ser [RGDS, reference compound]",phagocytic index (PGI),J774 macrophages [2]; [10],170
same,tube formation compared with PBS control,[3],not much difference
